Assays:
Phsp-6::gfp = assay: Mt stress/UPRmt reporter (Phsp-6::gfp) in worms; type: in vivo, C. elegans; conditions: worms fed PG mutant E. coli, supplement added
Protocol: (§1) C. elegans strains and maintenance: C. elegans strains were grown and maintained on nematode growth media (NGM) plates seeded with the Escherichia coli strain OP50 at 20° C. The following strains were obtained from Caenorhabditis Genetics Center (CGC): N2 Bristol (wild-type control strain), SJ4100: zcIs13 [Phsp-6::gfp] V, SJ4058: zcIs9 [Phsp-60::gfp+lin-15 (+)/V, SJ4197: zcIs39 [Pdve-1::dve-1::gfp] II, SJ4005: zcIs4 [Phsp-4::gfp] V, TJ375: gpIs1 [Phsp-16.2::gfp], AY101: acIs101 [PF35E12.5::gfp+rol-6(su1006)], AU133: agIs17 [Pmyo-2::mCherry+Pirg-1::gfp] IV, CF1553: muIs84 [(pAD76) sod-3p::GFP+rol-6(su1006)]. mai-2 (xm19) was obtained from Dr. R. E. Navarro (Universidad Nacional Autonoma de Mexico).
PG isolation, enzyme treatment and supplementation assays: An adapted method was used to isolate peptidoglycan from bacterial cultures. In brief, bacterial pellets were resuspended in 1/10 vol 1M NaCl solution and boiled at 100° C. in a heating block for 1 h. […]
(§2) Microscopy: Analysis of fluorescence was performed under Nomarski optics on a Zeisis Axioplan2 microscope with a Zeiss AxioCam MRm CCD camera. […]
(§3) Quantification and Statistical analysis: ImageJ software was used for quantifying fluorescence intensity of various of reporters. […]

C. elegans [1] = assay: Food avoidance behavior assay; type: in vivo; conditions: worms fed PG mutant E. coli, supplement added
Protocol: Food avoidance behavior assay: Food avoidance behavior assay was determined using a method adapted from a published procedure (Kniazeva et al., 2015; Melo and Ruvkun, 2012). Briefly, overnight cultures of wild type and PG mutant E. coli were adjusted to the same OD600 and 20 μl of each culture was seeded on the center of 6 cm NGM plates. The seeded plates were dried at room temperature for 1 hour before use. About 100 synchronized L1 animals were then dropped onto the bacterial lawns and cultured for 45 hours at 20° C. The avoidance index was determined by Noff/on/Ntotal. Each assay was conducted in triplicate.
Heat-killed E. coli preparation and supplementation: We followed an established protocol to prepare heat-killed (HK) E. coli: standard overnight bacterial cultures were concentrated to 1/10 vol and were then heated in a 75° C. water bath for 90 min. For HK-E. coli supplementation, live E. coli and HK-E. coli were mixed at a 1:1 ratio then 20 μl (avoidance behavior assay) or 50 μl (other assays) mixtures were dropped on the NGM plates and dried at room temperature for 10 min before use. About 100-200 synchronized L1 animals were placed on the bacterial lawn to grow at 20° C.
PG isolation, enzyme treatment and supplementation assays: An adapted method was used to isolate peptidoglycan from bacterial cultures. […]

SOD-3::GFP = SOD-3::GFP oxidative stress reporter in worms; type: in vivo, C. elegans; conditions: worms fed erfK mutant E. coli
Protocol: as §1
Chemical supplementation: The NAC (Fisher Scientific, ICN10009825) stock solution (500 mM) was made in ddH2O. For NAC supplementation, NAC solution was added in NGM agar to the final concentration of 50 mM. For iron supplementation, FeCl3 (Sigma, 236489) was dissolved in ddH2O to generate solutions of desired concentration (2 mM, 8 mM and 20 mM). […]
as §2, §3

ROS = ROS staining (H2DCFDA) in C. elegans; type: in vivo; conditions: worms fed erfK mutant E. coli
Protocol: ROS measurements in C. elegans: The ROS staining protocol was modified from. Briefly, L4 stage animals were collected and washed three times with M9 buffer to remove the bacteria. Then the worms were transferred into the staining solution (H2DCFDA, 50 uM in M9 buffer) and incubated for 30 min at 20° C. After washing twice with M9 buffer, worms were subjected to microscopic examination.

C. elegans [2] = assay: Developmental rate (growth delay) of worms fed PG mutant E. coli with supplementation; type: in vivo; conditions: supplement added
Protocol: E. coli Keio collection screen: Bacterial peptidoglycan (PG) metabolism-related genes were determined based on the published papers (Table 1) and the PG mutant sub-library was assembled from the Keio E. coli single mutant collection. Mutant bacteria strains, as well as the wild-type control strain BW25113, were cultured overnight in LB medium with 50 μg/ml kanamycin in 96-well plates at 37° C. 100 μl of the overnight E. coli cultures were spotted onto 6 cm NGM plates and dried at room temperature for 1h before use. About 200 synchronized L1 worms were then placed on the seeded NGM plates and cultured at 20° C. Animals were screened after 54-56 hours. Worm developmental rates were determined by vulval development as previously described. To quantify the developmental rate, about 50 animals were scored under Nomarski microscope. To verify the genotypes of the 4 candidate Keio mutants, PCR were performed on each mutant colony and the control BW25113 strain using specific downstream genomic primers together with kanamycin-cassette-specific primers. […]
as §3

| Structure (SMILES) | Mt stress (Phsp-6::gfp) (Phsp-6::gfp) | food avoidance behavior (C. elegans [1]) | increase in SOD-3 level (SOD-3::GFP) (SOD-3::GFP) | ROS level (H2DCFDA staining) (ROS) | growth delay (developmental delay) (C. elegans [2]) |
| --- | --- | --- | --- | --- | --- |
| CC(=O)N[C@@H](CS)C(=O)O [NAC, N-acetyl-L-cysteine] | significantly suppressed | significantly suppressed | eliminated | suppressed | significantly suppressed |
| [Cl][Fe]([Cl])[Cl] [iron, FeCl3] | could not suppress | – | – | – | could not suppress |
